According to patent US20190388389A1, “METHODS AND COMPOSITIONS OF CARNOSOL FOR INHIBITING UVB-INDUCED SKIN DAMAGE” (Ohio University, priority 2017, published 2019):

Tests used:
[1] = test system: phosphor-Chk; assay: Western blot of DNA damage marker, HaCaT cells; type: cell-based, Human; details: 15 min and 1 h post UVB 50 mJ/cm^2
Protocol: (§1) FIGS. 5A-5B: Carnosol protects UVB-induced DNA damage. (FIG. 5A) HaCaT cells and (FIG. 5B) MEF cells were exposed to 50 mJ/cm^2 UVB radiation in the presence or absence of carnosol. Cells were lysed at indicated time point and protein levels of phosphorylated H2AX and Chk were measured. The data represents three sets of independent experiments.
(§2) Cells were lysed with Nonidet P-40 (NP-40) lysis buffer (2% NP-40, 80 mM NaCl, 100 mM Tris-HCl pH 8.0, 0.1% SDS) with proteinase inhibitor mixture (Complete™, Roche Molecular Biochemicals) at indicated time point. Cell lysate was incubated on ice for 15 min and then centrifuged at 14,000 rpm at 4° C. for 15 min. Protein concentration was measured by Protein DC Assay kit (Bio-Rad Laboratories). Equal amounts of protein were subjected on SDS-PAGE and transferred to a nitrocellulose membrane. The membrane was then blocked in 5% milk in Tris buffered saline plus Tween 20 ® (TBST) for 45 min and probed with anti-yH2AX (Cell Signaling), anti-pCHK (Cell Signaling), anti-p276-NF-κB (Santa Cruz), anti-NF-κB p65 (Santa Cruz), anti-IκB (Santa Cruz), or anti-β-actin (Santa Cruz) at 4° C. overnight. After washing with TBST, the membrane was incubated with corresponding HRP-conjugated anti-rabbit or anti-mouse antibody for 45 min at room temperature. […]

[2] = test system: γH2AX (phosphorylated H2AX); assay: Western blot of DNA damage marker, HaCaT cells; type: cell-based, Human; details: 15 min and 1 h post UVB 50 mJ/cm^2
Protocol: as §1, §2

[3] = test system: HaCaT cells; assay: Comet assay for HaCaT exposed to UVB radiation; type: cell-based, Human; details: semi-quantitative by Image J
Excerpt: FIG. 5D: Comet assay for HaCaT exposed to UVB radiation. After cell treatment, cells were trypsinized and collect for comet assay. The tail intensity was semi-quantitatively analyzed using Image J.
Both human keratinocyte (HaCaT) and mouse embryonic fibroblast (MEF) cells were used, and the protein levels of γH2AX and phosphor-Chk were used as DNA damage marker. […] Similar results are observed in MEF cells as both the phosphorylation level of H2AX and Chk reduced at early stage post UVB radiation (FIG. 5B). […] To further show the protection effect of carnosol on UVB-irradiated cell, a comet assay was performed. […] Thus, carnosol ast least partially protect the DNA damage from UVB radiation.

[4] = test system: cyclobutane pyrimidine dimer (CPD) formation; assay: Quantitative measurement of CPD formation after UVB; type: cell-based; details: with vs without carnosol
Excerpt: FIG. 5E: Quantitative measurement of cyclobutane pyrimidine dimer (CPD) formation, with and without UVB, and with and without carnosol. *p<0.05 versus corresponded control group, **p<0.05 versus corresponded UV group.
There are two major forms of DNA damage caused by UVB radiation: one is the direct DNA damage which forms CPD; the other is the oxidation-caused DNA damage, which causes the formation of 6-4 PP. In order to identify which form of DNA damage is protected by carnosol, a quantitative assay to identify the production of both DNA damage products after UVB radiation with or without carnosol treatment was performed.

[5] = test system: IκB; assay: Western blot for IκB protein level, HaCaT cells; type: cell-based, Human
Protocol: (§3) FIGS. 7A-7F: Carnosol inhibited UVB-induced NF-κB activation. Cells were exposed to UVB radiation in the presence or absence of carnosol. Cells were lysed at indicated time point and protein levels were measured by western blot analysis. (FIG. 7A) Western blot for IκB protein level in HaCaT cells at 2, 4 h post UVB radiation at 1, 10 or 20 μM carnosol treatment. (FIG. 7B) Western blot analysis for IκB protein level in HaCaT cells at 6 h post UVB radiation in the presence or absence of carnosol. (FIG. 7C) Western blot analysis for IκB protein level in MEF cells at 6 h post UVB radiation in the presence or absence of carnosol. (FIG. 7D) Western blot for 5276 site phosphorylation of NF-κB in HaCaT cells at 6 h post UVB with indicated carnosol concentration. (FIG. 7E) EMSA assay for HaCaT cells at 2, 4, 6 h post UVB radiation in the presence or absence of carnosol (20 μM). (FIG. 7F) Statistical analysis of the EMSA assay using two to three sets of independent experiments. *p<0.05 versus control group, **p<0.05 versus UV group at indicated time point.
(§4) Cells were lysed with Nonidet P-40 (NP-40) lysis buffer (2% NP-40, 80 mM NaCl, 100 mM Tris-HCl pH 8.0, 0.1% SDS) with proteinase inhibitor mixture (Complete™, Roche Molecular Biochemicals) at indicated time point. […] Protein concentration was measured by Protein DC Assay kit (Bio-Rad Laboratories). […]

[6] = test system: NF-κB; assay: Western blot for S276 phosphorylation of NF-κB, HaCaT cells; type: cell-based, Human; details: 20 μM carnosol, 6 h post UVB
Protocol: as §3, §4

[7] = test system: NF-κB; assay: Electrophoretic mobility shift assay (EMSA), HaCaT nuclear extract; type: cell-based, Human; details: 20 μM carnosol; for NF-κB activity induction (EMSA): UVB alone about 2.6 fold
Protocol: as §3
A 22-bp synthetic oligonucleotide (5′-[…]-3′) [SEQ ID NO:1] containing the specific NF-κB-binding site was annealed and labeled with γ-^32P-ATP using T4 polynucleotide kinase. A DNA-binding reaction mixture of total 20 μL containing poly(dI:dC), labeled probe, binding buffer (10 mM pH 8.0 Tris HCl, 150 mM KCl, 0.5 mM EDTA, 0.1% Triton-X 100, 12.5% Glycerol and 0.2 mM DTT) and 10 jag of cell nuclear extract was incubated at room temperature for 30 min and loaded onto a 5% nondenaturing polyacrylamide gel for electrophoresis. The gel was run in 0.5×TBE buffer at 120 V, transferred to a double layer of Whatman paper and dried on a gel dryer for 45-60 mM at 76° C. The dried gel was used to expose an autoradiography film (Denville) at −80° C. and the NF-κB bound ^32P-labeled DNA was detected, and the band intensity was analyzed by Image J.

[8] = UVB irradiation of carnosol in DMSO, Mass Spectrum; type: physicochemical; details: 50 mJ/cm^2 UVB
Protocol: FIG. 10B. The carnosol was irradiated with UVB first in the DMSO solution, and then a Mass Spectrum was run to detect the decomposition of the compound.
FIG. 10C. Four major decomposed compounds were detected, with their molecular structure and weight solved.
UVB was generated from a Bench XX-Series UV Lamp (UVP Inc.) equipped with two 15-watt UVB tubes (UVP Inc.). The intensity of UVB was calibrated by a UVP model UVX digital radiometer (UVP Inc.) after the lamps warmed up for 5 min. For irradiating cells, the dose rate for 8 mJ/cm^2 or 50 mJ/cm^2 of UVB radiation was 0.8 or 3.8 mW/s respectively. Medium was removed before exposing the cells to UVB. After UVB radiation, fresh medium was added to the culture plates with or without drugs, and the cells were continue incubating at 37° C. with 5% CO2 until further analysis. Carnosol was disovled in DMSO and was irradiated with 50 mJ/cm^2 of UVB radiation at a dose rate of 3.8 mW/s before subjecting to cells or structure analysis using Mass Spectrum.

SMILES: CC(C)c1cc2c(c(O)c1O)[C@@]13CCCC(C)(C)[C@@H]1C[C@@H]2OC3=O [carnosol]
- phosphorylation level of Chk [1]: significantly reduced
- phosphorylation level of H2AX [2]: significantly reduced
- comet tail intensity upon UVB radiation [3]: almost by half
- formation of CPD after UVB radiation [4]: almost by half
- IκB protein level ([5]; HaCaT, 2, 4 h post UVB, dose dependent (1, 10, 20 μM)): protects IκB level
- IκB protein level ([5]; HaCaT, 6 h post UVB): protection exists at least until 6 h
- phosphorylation of NF-κB at Serine 276 (S276) [6]: reduces the phosphorylation
- NF-κB activity (DNA binding, EMSA) ([7]; 2 h post UVB, UVB alone induced by 20%): no statistically significant change
- NF-κB activity induction (EMSA) ([7]; 4 h post UVB): 2.2 fold
- NF-κB activity induction (EMSA) ([7]; 6 h post UVB): 1.5 fold
- decomposition upon UVB radiation [8]: breaks down to 4 major products
